# Source: PubChem BioAssay AID256 (DTP/NCI, 2004)
# Where “and” joins values, the source holds several entries; their conditions need not be identical. Identical values can stand only once. Inconclusive results and toxic doses are left out.
# Tested on: CD2F1 mice, L1210 leukemia ip, survival T/C
# Test: NCI In Vivo Anticancer Drug Screen. Data for tumor model L1210 Leukemia (intraperitoneal) in CD2F1 (CDF1) mice
# Settings: higher = longer survival
# Outline: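 Compound-dosed mice with transplantable tumor versus matched vehicle controls; endpoint ratio T/C reported.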
# [1] = endpoint: mean survival time, dose: 100.0 mg/kg/injection, schedule: Q04DX003 (ip), vehicle: saline
# [2] = endpoint: mean survival time, dose: 200.0 mg/kg/injection, schedule: Q04DX003 (ip), vehicle: saline
# [3] = endpoint: mean survival time, dose: 400.0 mg/kg/injection, schedule: Q04DX003 (ip), vehicle: saline
# [4] = endpoint: mean survival time, dose: 12.0 mg/kg/injection, schedule: Q01DX009 (ip), vehicle: saline with Tween-80
# [5] = endpoint: mean survival time, dose: 100.0 mg/kg/injection, schedule: Q01DX009 (ip), vehicle: saline with Tween-80
# [6] = endpoint: mean survival time, dose: 12.5 mg/kg/injection, schedule: Q01DX009 (ip), vehicle: other
# [7] = endpoint: mean survival time, dose: 25.0 mg/kg/injection, schedule: Q01DX009 (ip), vehicle: other
# [8] = endpoint: mean survival time, dose: 50.0 mg/kg/injection, schedule: Q01DX009 (ip), vehicle: other
# [9] = endpoint: mean survival time, dose: 100.0 mg/kg/injection, schedule: Q01DX009 (ip), vehicle: other
# [10] = endpoint: mean survival time, dose: 200.0 mg/kg/injection, schedule: Q01DX009 (ip), vehicle: other
# [11] = endpoint: mean survival time, dose: 100.0 mg/kg/injection, schedule: Q04DX003 (ip), vehicle: saline with Tween-80
# [12] = endpoint: mean survival time, dose: 200.0 mg/kg/injection, schedule: Q01DX009 (ip), vehicle: saline with Tween-80
# [13] = endpoint: mean survival time, dose: 200.0 mg/kg/injection, schedule: Q04DX003 (ip), vehicle: saline with Tween-80
# [14] = endpoint: mean survival time, dose: 400.0 mg/kg/injection, schedule: Q01DX009 (ip), vehicle: saline with Tween-80
# [15] = endpoint: mean survival time, dose: 400.0 mg/kg/injection, schedule: Q04DX003 (ip), vehicle: saline with Tween-80
# [16] = endpoint: mean survival time, dose: 25.0 mg/kg/injection, schedule: Q01DX009 (ip), vehicle: saline with Tween-80
# [17] = endpoint: mean survival time, dose: 50.0 mg/kg/injection, schedule: Q01DX009 (ip), vehicle: saline with Tween-80
# [18] = endpoint: mean survival time, dose: 75.0 mg/kg/injection, schedule: Q01DX001 (ip), vehicle: saline
# [19] = endpoint: mean survival time, dose: 100.0 mg/kg/injection, schedule: Q01DX001 (ip), vehicle: Klucel (hydroxypropylcellulose) (HPC)
structure (smiles),measurement,setting,value
OC1CCCC(O)C1O (stereo not given),T/C,[1],101 % of control
same,T/C,[2],97 % of control
same,T/C,[3],101 % of control
Nc1ncnc2nc(CCCCc3ccccc3)[nH]c12,T/C,"endpoint: mean survival time, dose: 3.0 mg/kg/injection, schedule: Q01DX009 (ip), vehicle: saline with Tween-80",95 % of control
same,T/C,"endpoint: mean survival time, dose: 6.0 mg/kg/injection, schedule: Q01DX009 (ip), vehicle: saline with Tween-80",106 % of control
same,T/C,[4],104 % of control
O=C(CCCl)Oc1c(Cl)c(Cl)c(Cl)c(Cl)c1Cl,T/C,[5],92 % of control
Nc1ccnc(Oc2ccc(Cl)cc2)n1,T/C,"endpoint: mean survival time, dose: 100.0 mg/kg/injection, schedule: Q01DX001 (ip), vehicle: saline with Tween-80",104 % of control
same,T/C,"endpoint: mean survival time, dose: 200.0 mg/kg/injection, schedule: Q01DX001 (ip), vehicle: saline with Tween-80",104 % of control
same,T/C,"endpoint: mean survival time, dose: 400.0 mg/kg/injection, schedule: Q01DX001 (ip), vehicle: saline with Tween-80",98 % of control
COc1ccc(CCNC(=O)c2ccc(OC)c(OC)c2)cc1OC,T/C,[6],104 % of control
same,T/C,[7],90 % of control
same,T/C,[8],103 % of control
same,T/C,[9],98 % of control
same,T/C,[10],97 % of control
O=C(COc1ccc(F)cc1F)OC(=O)Cc1ccc(Br)cc1,T/C,"endpoint: mean survival time, dose: 100.0 mg/kg/injection, schedule: Q04DX002 (ip), vehicle: saline with Tween-80",101 % of control
same,T/C,"endpoint: mean survival time, dose: 200.0 mg/kg/injection, schedule: Q04DX002 (ip), vehicle: saline with Tween-80",105 % of control
same,T/C,"endpoint: mean survival time, dose: 400.0 mg/kg/injection, schedule: Q04DX002 (ip), vehicle: saline with Tween-80",86 % of control
Cc1ccc(NC(=O)c2ccccc2C(=O)O)c(C)c1,T/C,[5],109 % of control
same,T/C,[11],95 % of control
same,T/C,[12],96 % of control
same,T/C,[13],109 % of control
same,T/C,[14],115 % of control
same,T/C,[15],103 % of control
CN(C)c1ccc(/C=N/NC(=O)NN)cc1,T/C,"endpoint: mean survival time, dose: 12.5 mg/kg/injection, schedule: Q01DX009 (ip), vehicle: saline with Tween-80",98 % of control
same,T/C,"endpoint: mean survival time, dose: 12.5 mg/kg/injection, schedule: Q04DX003 (ip), vehicle: saline with Tween-80",98 % of control
same,T/C,[16],100 % of control
same,T/C,"endpoint: mean survival time, dose: 25.0 mg/kg/injection, schedule: Q04DX003 (ip), vehicle: saline with Tween-80",98 % of control
same,T/C,[17],98 % of control
same,T/C,"endpoint: mean survival time, dose: 50.0 mg/kg/injection, schedule: Q04DX003 (ip), vehicle: saline with Tween-80",104 % of control
CC(=O)Nc1ccc(S(=O)(=O)CBr)cc1,T/C,"endpoint: mean survival time, dose: 100.0 mg/kg/injection, schedule: Q01DX001 (ip), vehicle: saline",102 % of control
same,T/C,"endpoint: mean survival time, dose: 200.0 mg/kg/injection, schedule: Q01DX001 (ip), vehicle: saline",97 % of control
same,T/C,"endpoint: mean survival time, dose: 400.0 mg/kg/injection, schedule: Q01DX001 (ip), vehicle: saline",96 % of control
Cc1ccc(C)c2c1CC/C(=C\c1ccccc1[N+](=O)[O-])C2=O,T/C,[11],96 % of control
same,T/C,[13],97 % of control
same,T/C,[15],91 % of control
O=C(O)C[Se](=O)O,T/C,"endpoint: mean survival time, dose: 12.5 mg/kg/injection, schedule: Q01DX001 (ip), vehicle: saline with Tween-80",91 % of control
same,T/C,"endpoint: mean survival time, dose: 25.0 mg/kg/injection, schedule: Q01DX001 (ip), vehicle: saline with Tween-80",91 % of control
CN1CCN(CC(=O)N2c3ccccc3Sc3cc4ccccc4cc32)CC1,T/C,[18],101 % of control
same,T/C,"endpoint: mean survival time, dose: 150.0 mg/kg/injection, schedule: Q01DX001 (ip), vehicle: saline",108 % of control
same,T/C,"endpoint: mean survival time, dose: 300.0 mg/kg/injection, schedule: Q01DX001 (ip), vehicle: saline",96 % of control
COC1C(O)C(C)OC(OC2C(Oc3cccc4c(O)c5c(=O)oc6ccc(C)c7c(=O)oc(c34)c5c67)OC(C)C(O)C2O)C1O (stereo not given),T/C,"endpoint: mean survival time, dose: 5.0 mg/kg/injection, schedule: Q01DX009 (ip), vehicle: saline with Tween-80",116 % of control
same,T/C,"endpoint: mean survival time, dose: 10.0 mg/kg/injection, schedule: Q01DX009 (ip), vehicle: saline with Tween-80",115 % of control
same,T/C,"endpoint: mean survival time, dose: 20.0 mg/kg/injection, schedule: Q01DX009 (ip), vehicle: saline with Tween-80",116 % of control
same,T/C,"endpoint: mean survival time, dose: 80.0 mg/kg/injection, schedule: Q01DX009 (ip), vehicle: saline with Tween-80",123 % of control
O=Cc1cc2c(cc1Br)OCO2,T/C,[5],98 % of control
same,T/C,[11],98 % of control
same,T/C,[12],97 % of control
same,T/C,[13],101 % of control
same,T/C,[14],92 % of control
same,T/C,[15],98 % of control
CC(=O)Nc1ccc2c(Nc3ccc(NS(C)(=O)=O)cc3)c3ccccc3nc2c1,T/C,"endpoint: mean survival time, dose: 8.0 mg/kg/injection, schedule: Q01DX009 (ip), vehicle: saline with Tween-80",192 % of control
same,T/C,[4],203 % of control
same,T/C,"endpoint: mean survival time, dose: 18.0 mg/kg/injection, schedule: Q01DX009 (ip), vehicle: saline with Tween-80",105 % of control
same,T/C,[1],122 % of control
same,T/C,[2],101 % of control
COc1ccc(NC(=O)CC(C)C(=O)O)cc1 (stereo not given),T/C,[11],101 % of control
same,T/C,[13],100 % of control
same,T/C,[15],101 % of control
OCC1OC(n2cnc3cc(Cl)c(Cl)cc32)C(O)C1O (stereo not given),T/C,"endpoint: median survival time, dose: 25.0 mg/kg/injection, schedule: Q01DX009 (ip), vehicle: saline with Tween-80",97 % of control and 103 % of control
same,T/C,"endpoint: median survival time, dose: 50.0 mg/kg/injection, schedule: Q01DX009 (ip), vehicle: saline with Tween-80",106 % of control
same,T/C,"endpoint: median survival time, dose: 100.0 mg/kg/injection, schedule: Q01DX009 (ip), vehicle: saline with Tween-80",120 % of control and 110 % of control and 112 % of control
same,T/C,"endpoint: median survival time, dose: 200.0 mg/kg/injection, schedule: Q01DX009 (ip), vehicle: saline with Tween-80",120 % of control
Cc1ccc([N+](=O)[O-])c(P(=O)(O)O)c1,T/C,[16],91 % of control
same,T/C,[17],88 % of control
same,T/C,[5],87 % of control
CC(C)(C)CC(C)(C)c1ccc(OCCOC(=O)c2ccccc2C(=O)O)cc1,T/C,[19],90 % of control
OC1CCCCCCCCC1Cl (stereo not given),T/C,[5],88 % of control
same,T/C,[11],94 % of control
same,T/C,[13],93 % of control
same,T/C,[15],96 % of control
BrCN(CBr)c1ccc2c(c1)Cc1cc(Br)ccc1-2,T/C,[1],100 % of control
same,T/C,[2],101 % of control
same,T/C,[3],103 % of control
COc1ccc([Si](C)(C)CNCCSS(=O)(=O)O)cc1,T/C,[17],97 % of control
same,T/C,[5],103 % of control
same,T/C,[11],101 % of control
same,T/C,[12],92 % of control
same,T/C,[13],95 % of control
S=C=NCCCCCCN=C=S,T/C,"endpoint: mean survival time, dose: 6.25 mg/kg/injection, schedule: Q04DX002 (ip), vehicle: saline",104 % of control
same,T/C,"endpoint: mean survival time, dose: 12.5 mg/kg/injection, schedule: Q04DX002 (ip), vehicle: saline",98 % of control
same,T/C,"endpoint: mean survival time, dose: 25.0 mg/kg/injection, schedule: Q04DX002 (ip), vehicle: saline",90 % of control and 102 % of control
same,T/C,"endpoint: mean survival time, dose: 50.0 mg/kg/injection, schedule: Q04DX002 (ip), vehicle: saline",98 % of control
N#CC1(C2(C#N)CCCCC2)CCCCC1,T/C,[19],116 % of control
same,T/C,"endpoint: mean survival time, dose: 200.0 mg/kg/injection, schedule: Q01DX001 (ip), vehicle: Klucel (hydroxypropylcellulose) (HPC)",92 % of control
same,T/C,"endpoint: mean survival time, dose: 400.0 mg/kg/injection, schedule: Q01DX001 (ip), vehicle: Klucel (hydroxypropylcellulose) (HPC)",100 % of control
O=C(CCl)NCc1cn(C2CC(O)C(CO)O2)c(=O)[nH]c1=O (stereo not given),T/C,"endpoint: mean survival time, dose: 5.6 mg/kg/injection, schedule: Q01DX005 (ip), vehicle: water",111 % of control
same,T/C,"endpoint: mean survival time, dose: 11.25 mg/kg/injection, schedule: Q01DX005 (ip), vehicle: water",100 % of control
same,T/C,"endpoint: mean survival time, dose: 22.5 mg/kg/injection, schedule: Q01DX005 (ip), vehicle: water",103 % of control
same,T/C,"endpoint: mean survival time, dose: 45.0 mg/kg/injection, schedule: Q01DX005 (ip), vehicle: water",95 % of control
same,T/C,"endpoint: mean survival time, dose: 90.0 mg/kg/injection, schedule: Q01DX005 (ip), vehicle: water",103 % of control
CCOC(=O)C1=NN(c2ccccc2)C(=O)C1,T/C,[5],94 % of control
same,T/C,[12],94 % of control
same,T/C,[14],92 % of control
Nc1nc(N)n(-c2ccccn2)n1,T/C,"endpoint: mean survival time, dose: 75.0 mg/kg/injection, schedule: Q01DX001 (ip), vehicle: other",101 % of control
same,T/C,"endpoint: mean survival time, dose: 150.0 mg/kg/injection, schedule: Q01DX001 (ip), vehicle: other",97 % of control
O=C1CC(NC(=O)C(F)(F)F)C(=O)O1 (stereo not given),T/C,[1],94 % of control
same,T/C,[2],95 % of control
same,T/C,[3],94 % of control
O=C1c2ccccc2C(=O)c2c(O)c3c(c(O)c21)CCC(O)C3 (stereo not given),T/C,[6],102 % of control
same,T/C,[7],107 % of control
same,T/C,[8],96 % of control
same,T/C,[9],91 % of control
same,T/C,[10],93 % of control
Nc1nc(Br)nc2c1ncn2C1OC(CO)C(O)C1O (stereo not given),T/C,[18],109 % of control
